Data: ChEMBL document CHEMBL1137272, “Discovery and synthesis of tetrahydroindolone derived semicarbazones as selective Kv1.5 blockers” (Bioorg Med Chem Lett, 2006)
Calls of active or inactive are those of the source. The calls are words filed in the database; no cut-off is given here.

Legend:
[1] = molecular target: T1, Potassium voltage-gated channel subfamily A member 5 (Homo sapiens, UniProt P22460); assay: Inhibition of Kv1.5 expressed in LTK- cells by whole cell patch clamp assay at 1uM; assay type: functional, cell-based
T1 sequence (P22460 whole entry): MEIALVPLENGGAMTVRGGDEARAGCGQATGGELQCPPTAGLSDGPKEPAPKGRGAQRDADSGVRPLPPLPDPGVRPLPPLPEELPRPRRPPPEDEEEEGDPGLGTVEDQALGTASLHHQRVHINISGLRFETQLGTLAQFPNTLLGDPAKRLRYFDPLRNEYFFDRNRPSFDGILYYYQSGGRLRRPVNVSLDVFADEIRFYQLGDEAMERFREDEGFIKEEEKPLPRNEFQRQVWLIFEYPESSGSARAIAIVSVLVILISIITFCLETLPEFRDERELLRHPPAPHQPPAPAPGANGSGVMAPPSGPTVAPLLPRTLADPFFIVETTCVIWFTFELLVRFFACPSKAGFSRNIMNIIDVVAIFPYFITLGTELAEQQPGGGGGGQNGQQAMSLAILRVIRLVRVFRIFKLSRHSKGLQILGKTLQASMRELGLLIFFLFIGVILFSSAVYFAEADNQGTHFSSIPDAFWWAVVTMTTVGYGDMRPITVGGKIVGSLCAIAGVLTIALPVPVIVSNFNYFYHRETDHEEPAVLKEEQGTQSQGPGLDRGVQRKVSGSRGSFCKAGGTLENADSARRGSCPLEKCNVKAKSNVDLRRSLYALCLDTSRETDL

[2] = molecular target: T1, Potassium voltage-gated channel subfamily A member 5; assay: Inhibition of Kv1.5 expressed in LTK- cells by whole cell patch clamp assay; assay type: functional, cell-based
Sus scrofa [3] = assay: Prolonged right atrial refractory period in pigs after 15 minute iv infusion at 10mg/kg; assay type: functional, Cardiac atrium
Sus scrofa [4] = assay: Prolonged ventricular refractory period in pigs after 15 minute iv infusion at 10mg/kg; assay type: functional, organism-based; conditions: Cardiac ventricle
[5] = molecular target: Voltage-gated L-type calcium channel (Homo sapiens, UniProt Q13936+Q13698+Q01668+O60840); assay: Inhibition of L-type calcium channel by FLIPR assay; assay type: functional
Sus scrofa [6] = assay: Prolonged right atrial refractory period in pigs after 15 minute iv infusion at 30mg/kg; assay type: functional, Cardiac atrium
Sus scrofa [7] = assay: Prolonged ventricular refractory period in pigs after 15 minute iv infusion at 30mg/kg; assay type: functional, organism-based; conditions: Cardiac ventricle

Row | SMILES | inhibition [1] | further results
1 | CCc1c(C)[nH]c2c1/C(=N/NC(=S)Nc1cccc(C)c1)CCC2 | 64% | 
2 | CCc1c(C)[nH]c2c1/C(=N/N(C)C(=O)Nc1ccc(C(C)=O)cc1)CCC2 | 86% | 
3 | Cc1[nH]c2c(c1C(C)C)/C(=N/NC(=O)Nc1ccc(Cl)cc1)CCC2 | inactive | 
4 | CCc1c(C)[nH]c2c1/C(=N/NC(=O)Nc1ccccc1)CCC2 | 85% | IC50 [2]: 130 nM; Prolonged ARP (Sus scrofa [3]): 28%; Prolonged VRP (Sus scrofa [4]): inactive; IC50 [5]: > 30 µM
5 | CCc1c2c(n(C)c1CC)CCC/C2=N\N(C)C(=O)Nc1ccc(Cl)cc1 | 90% | 
6 | CCc1[nH]c2c(c1CC)/C(=N/NC(=O)Nc1ccc(OC)cc1)CCC2 | 85% | 
7 | CCc1c2c(n(C)c1CC)CCC/C2=N\N(C)C(=O)Nc1ccccc1 | 84% | 
8 | CCc1c(C)[nH]c2c1/C(=N/NC(=O)Nc1ccc(Cl)cc1)CCC2 | 65% | IC50 [2]: 440 nM
9 | O=C(N/N=C1\CCCc2[nH]ccc21)Nc1ccc(Cl)cc1 | 28% | IC50 [2]: 5600 nM
10 | CCc1c(C)[nH]c2c1/C(=N/N(C)C(=O)Nc1ccccc1)CCC2 | 65% | 
11 | CCc1c(C)[nH]c2c1/C(=N/NC(=S)Nc1ccc(C(F)(F)F)cc1)CCC2 | 52% | 
12 | CCc1c(C)[nH]c2c1/C(=N/NC(=S)Nc1cccc(Cl)c1)CCC2 | 78% | 
13 | O=C(N/N=C1\CCCc2[nH]ccc21)Nc1ccccc1 | inactive | 
14 | CCc1[nH]c2c(c1CC)/C(=N/NC(=O)Nc1ccc(Cl)cc1)CCC2 | 60% | 
15 | Cc1[nH]c2c(c1C)/C(=N/NC(=O)Nc1ccc(Cl)cc1)CCC2 | 67% | IC50 [2]: 370 nM
16 | CCc1c(C)[nH]c2c1/C(=N/NC(=S)Nc1cccc(C(F)(F)F)c1)CCC2 | 91% | IC50 [2]: 200 nM

Row | SMILES | inhibition [1] | further results
17 | CCc1c(C)[nH]c2c1/C(=N/NC(=O)Nc1ccc(SC)cc1)CCC2 | 80% | IC50 [2]: 280 nM
18 | CCc1[nH]c2c(c1CC)/C(=N/NC(=O)Nc1ccc(SC)cc1)CCC2 | 56% | 
19 | CCc1c(C)[nH]c2c1/C(=N/NC(=O)Nc1cccc(C3CCCN3)c1)CCC2 (stereo not given) | 60% | IC50 [2]: 750 nM
20 | CCc1[nH]c2c(c1CC)/C(=N/NC(=O)Nc1cccc(SC)c1)CCC2 | 67% | 
21 | CCc1c(C)[nH]c2c1/C(=N/NC(=S)Nc1ccc(Cl)cc1)CCC2 | 71% | 
22 | CCc1c(C)[nH]c2c1/C(=N/NC(=O)Nc1ccc(C)cc1)CCC2 | 50% | 
23 | Cc1[nH]c2c(c1C)/C(=N/NC(=O)Nc1ccc(C(F)(F)F)cc1)CCC2 | 63% | 
24 | CCc1[nH]c2c(c1CC)/C(=N/NC(=O)Nc1ccccc1)CCC2 | 56% | 
25 | CCc1c2c(n(C)c1CC)CCC/C2=N\N(C)C(=O)Nc1ccc(C(C)=O)cc1 | 90% | IC50 [2]: 370 nM
26 | Cc1[nH]c2c(c1C(C)C)/C(=N/NC(=O)Nc1ccccc1)CCC2 | inactive | 
27 | CCc1c(C)[nH]c2c1/C(=N/N(C)C(=O)Nc1ccc(SC)cc1)CCC2 | 78% | 
28 | O=C(N/N=C1\CCCC2=C1C1CCCCC1N2)Nc1ccccc1 (stereo not given) | 20% | 
29 | CCc1c(C)[nH]c2c1/C(=N/N(C)C(=O)Nc1ccc(Cl)cc1)CCC2 | 93% | IC50 [2]: 130 nM; Prolonged ARP (Sus scrofa [6]): 18%; Prolonged VRP (Sus scrofa [7]): inactive
30 | CCc1c(C)[nH]c2c1/C(=N/N(C)C(=O)Nc1cccc(Cl)c1)CCC2 | 89% | 
31 | Cc1[nH]c2c(c1C)/C(=N/NC(=O)Nc1ccccc1)CCC2 | 37% | 
